From US7122563B2, “Derivatives of 4-demethylpenclomedine, use thereof and preparation thereof” (Southern Research Institute, priority 2005, dated 2006)

What was measured:
[1] = rats; cited from earlier work
MX-1 Mammary Tumor = test: MX-1 mammary tumor implanted in the mammary fat pad of mice, i.p. treatment
[2] = tested on: U251 human glioblastoma xenograft; test: Intracranially-implanted U251 human glioblastoma xenograft, survival; format: in vivo; settings: for increase in life span (ILS): intracranially-implanted U251, side-by-side experiment
Source text: (§1) Treatment of i.c. implants is initiated 1 day after tumor implantation and continued for 5 days. Mice are monitored daily for survival.

[3] = tested on: D54 human glioblastoma multiforme; test: Intracranially-implanted D54 human glioblastoma multiforme, survival; format: in vivo
Source text: as §1

[4] = Behavioral test of neurotoxicity (tremors); format: in vivo; settings: DM-SMTC-PEN evaluated simultaneously with PEN
Source text: A major concern for the penclomedine (PEN) series of derivatives is their possible neurotoxicity. PEN was removed from clinical development as a potential drug for treating breast cancer because of its dose-limiting neurotoxicity.

[5] = after both intravenous and oral administration, related to peak plasma levels; cited from earlier work
[6] = IP 135 mg/kg/dose, Days 15–19, groups of 5 mice
[7] = IP 135 mg/kg/dose, Days 13-17, groups of 5 mice
[8] = IP 60 mg/kg/dose, Days 15–19, groups of 5 mice

## COc1nc(C(Cl)(Cl)Cl)c(Cl)c(O)c1Cl [4-DM-PEN, 3,5-Dichloro-2-methoxy-4-hydroxy-6-(trichloromethyl)pyridine, reference compound]
[1]
  cerebellar damage: cerebellar damage only in the PEN-treated group
MX-1 Mammary Tumor; IP 135 mg/kg/dose, Days 15–19
  Growth Delay (T-C): 32.8
  Tumor-free Survivors: 0/5
MX-1 Mammary Tumor; [6]
  Regressions Complete: 0
  Regressions Partial: 2

## CCN(CC)C(=S)Oc1c(Cl)c(OC)nc(C(Cl)(Cl)Cl)c1Cl [DM-DETC-PEN]
MX-1 Mammary Tumor; IP 135 mg/kg/dose, Days 15–19
  Growth Delay (T-C): >35.2
  Tumor-free Survivors: 1/5
MX-1 Mammary Tumor; [6]
  Regressions Complete: 1
  Regressions Partial: 1

## COc1nc(C(Cl)(Cl)Cl)c(Cl)c(OC(=S)N(C)C)c1Cl [DM-DMTC-PEN]
[2]
  increase in life span (ILS): 44%
MX-1 Mammary Tumor; IP 135 mg/kg/dose, Days 13-17
  Growth Delay (T-C): >37.0
  Tumor-free Survivors: 3/5
MX-1 Mammary Tumor; [7]
  Regressions Complete: 4
  Regressions Partial: 1

## CCSC(=O)Oc1c(Cl)c(OC)nc(C(Cl)(Cl)Cl)c1Cl [DM-SETC-PEN]
MX-1 Mammary Tumor; IP 60 mg/kg/dose, Days 15–19
  Growth Delay (T-C): >35.2
  Tumor-free Survivors: 1/5
MX-1 Mammary Tumor; [8]
  Regressions Complete: 2
  Regressions Partial: 3

## COc1nc(C(Cl)(Cl)Cl)c(Cl)c(OC(=O)SC)c1Cl [DM-SMTC-PEN]
[2]; compared with the acyl derivatives
  activity against intracranially-implanted U251: comparably active to the acyl derivatives
[2]
  increase in life span (ILS): 56%
[3]
  increase in life span: 18%
[4]
  neurotoxicity (production of tremors): non-neurotoxic
MX-1 Mammary Tumor; IP 60 mg/kg/dose, Days 15–19
  Growth Delay (T-C): >41.6
  Tumor-free Survivors: 2/5
MX-1 Mammary Tumor; [8]
  Regressions Complete: 2
  Regressions Partial: 2

## COc1nc(C(Cl)(Cl)Cl)c(Cl)c(OC(=O)Sc2ccccc2)c1Cl [DM-SPTC-PEN]
MX-1 Mammary Tumor; IP 135 mg/kg/dose, Days 15–19
  Growth Delay (T-C): >35.2
  Tumor-free Survivors: 1/5
MX-1 Mammary Tumor; [6]
  Regressions Complete: 2
  Regressions Partial: 2

## COc1nc(C(Cl)(Cl)Cl)c(Cl)c(OC)c1Cl [PEN, 3,5-dichloro-2,4-dimethoxy-6-(trichloromethyl) pyridine]
[4]
  neurotoxicity (production of tremors): production of tremors
[5]
  neurotoxicity in clinical trials: dose-limiting neurotoxicity was observed
[1]
  cerebellar damage: cerebellar damage only in the PEN-treated group
